Values quoted from earlier work, collected in patent EP0490031B1, “Method for protecting crops while eliminating crop injury due to pesticide interactions” (priority 1990, dated 1992).

What was measured:
rabbits = conditions: technical grade

Compound | acute percutaneous LD50 (rats) | acute percutaneous LD50 (rabbits)
CCOP(=S)(OCC)SCSCC [Phorate] | 2.5-6.2 mg/kg of animal body weight | –
CCOP(=S)(OCC)SCSC(C)(C)C [Technical grade terbufos, O,O-diethyl S-{[(1,1-dimethylethyl)thio]methyl}phosphorodithioate] | – | 1.0 mg/kg of animal body weight
